Source: US4663332A, “5-substituted N-alkylated tetrazoles” (Hoffman-La Roche Inc., priority 1985, dated 1987)

How the values were obtained:
[1] = biological target: T1, TXA2 synthase (Homo sapiens, UniProt P24557); experiment: Thromboxane Synthase Inhibition, In Vitro (TXA2 Synth. Inhib.); assay type: biochemical; details: human platelet microsomes, 10 μM 14C-PGH2, 22° C., 2 min
T1 construct: using microsomal fractions from human platelets as enzyme source; from tissue; host or cells: microsomal fractions from human platelets
T1 sequence (P24557 1-533): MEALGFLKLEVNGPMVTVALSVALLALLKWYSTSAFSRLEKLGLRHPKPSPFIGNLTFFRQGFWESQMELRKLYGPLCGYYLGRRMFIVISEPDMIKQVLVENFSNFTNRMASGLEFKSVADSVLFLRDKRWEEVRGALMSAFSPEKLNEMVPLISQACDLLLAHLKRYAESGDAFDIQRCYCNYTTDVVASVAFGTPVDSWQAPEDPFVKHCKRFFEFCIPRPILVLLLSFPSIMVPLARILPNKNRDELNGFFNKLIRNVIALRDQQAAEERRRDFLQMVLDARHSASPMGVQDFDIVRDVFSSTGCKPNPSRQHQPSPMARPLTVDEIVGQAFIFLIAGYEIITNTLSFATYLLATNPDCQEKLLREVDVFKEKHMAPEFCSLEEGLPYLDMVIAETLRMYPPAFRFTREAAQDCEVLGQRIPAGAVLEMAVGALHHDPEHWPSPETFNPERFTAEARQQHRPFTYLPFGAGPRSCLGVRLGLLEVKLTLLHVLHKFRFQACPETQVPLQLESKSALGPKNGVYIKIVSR
Description: (2) Thromboxane Synthase Inhibition, In Vitro (TXA2 Synth. Inhib.)
TXA2 synthase activity is measured by following the conversion of ^14 C-prostaglandin endoperoxide (PGH2) to ^14 C-thromboxane A2 (TXA2) using microsomal fractions from human platelets as enzyme source. In the aqueous incubation medium, the TXA2 decomposes rapidly into TXB2. The amount of TXA2 synthase is adjusted so that under the conditions of the assay approximately 80-90% of the substrate, PGH2, is converted to product in control tubes. To prepare ^14 C-PGH2, ^14 C-AA (50-60 mCi/mmole; Rose Chem.) is incubated with sheep seminal vesicular gland microsomes for 1.5 minutes at 37° C. and then the ^14 C-PGH2 is extracted with diethylether, purified on columns oof Sephadex LH-20 or silicic acid, and stored in acetone at -70° C. Incubations are done as follows. Sufficient ^14 C-PGH2 to yield a final substrate concentration of 10 μM (30,000 cpm) is added to the incubation tubes and then the acetone is removed under nitrogen. The tubes are placed in an ice bath and then 215 μl of ice cold phosphate buffered saline, 10 μl of ethanol (control) or of test drug in ethanol, and 25 μl of the microsomal suspension are added with mixing in that order as rapidly as possible. The tubes are incubated at 22° C. for 2 minutes, the reaction is stopped and then the radioactive products and the unconverted PGH2 are extracted and analyzed by thin layer chromatography. […] The amount of ^14 C-PGH2 converted to products was used as a measure of TXA2 synthase activity. Inhibitors were tested initially at a final concentration 100 μM. Results obtained with representative compounds of the present invention in this assay are summarized hereafter in Tables I and II. IC50 is the drug concentration (μMolar) which inhibits TXA2 activity by 50%.

[2] = biological target: T2, PAF binding to dog platelets (Canis lupus familiaris, UniProt A0A8I3NSH0); experiment: PAF Radioreceptor Binding Assay (PAF Binding); details: inhibition of 3H-PAF binding to dog platelets, 10 min, room temperature
T2 construct: from tissue; host or cells: washed platelets from citrate-treated dog blood
T2 sequence (A0A8I3NSH0 1-343): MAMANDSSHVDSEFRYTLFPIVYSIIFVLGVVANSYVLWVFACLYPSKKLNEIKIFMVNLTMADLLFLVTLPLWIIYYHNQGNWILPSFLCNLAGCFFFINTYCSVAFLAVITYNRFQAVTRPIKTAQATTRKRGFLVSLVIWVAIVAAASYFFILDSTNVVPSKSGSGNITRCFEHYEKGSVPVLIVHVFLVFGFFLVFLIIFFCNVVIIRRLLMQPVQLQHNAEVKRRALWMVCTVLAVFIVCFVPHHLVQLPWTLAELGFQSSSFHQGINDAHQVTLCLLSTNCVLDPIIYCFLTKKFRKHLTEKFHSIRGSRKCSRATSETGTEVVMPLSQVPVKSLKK
Description: (1) PAF Radioreceptor Binding Assay (PAF Binding)
Platelet rich plasma is prepared by centrifugation of citrate-treated dog blood. Acidification to pH 6.5 with 0.15M citric acid and centrifugation for 10 minutes at 1000×g yields a platelet pellet which is then washed by resuspension in EDTA-Phosphate Buffered Saline (PBS) and recentrifuged. The washed platelet preparation is adjusted to 2×10^7 platelets/50 μl in 0.1% bovine serum albumin-PBS.
To a 400 μl microfuge tube containing 50 μl silicone oil (specific gravity 1.023) is added buffer, PAF standard or analog, or an extract to bring the aqueous volume to 150 μl. 50 μl of ^3 H-PAF (10,000 cpm, 45 Ci/mM) is added followed by 2×10^7 dog platelets. After mixing, incubating for 10 minutes at room temperature, and centrifuging for 1 minute in a Beckman Microfuge B (8000×g), the pellet is removed by clipping off the tip of the tube, the platelets are solubilized with 200 μl of 50% methanol and counted in 10 ml of Aquasol. […] Results obtained with representative copounds of the present invention in this assay are summarized hereinafter in Tables I and II. IC50 is drug concentration (μMolar) which inhibits PAF binding to dog platelets by 50%.

[3] = tested on: PAF; experiment: Inhibition of PAF Induced Guinea Pig Bronchoconstriction Test (Inhib. of PAF Broncho.); assay type: in vivo, guinea pig (Hartley strain); details: Cavia porcellus, iv; 1 mg/kg i.v. (1 min. pretreat)
Description: (3) Inhibition of PAF Induced Guinea Pig Bronchoconstriction Test (Inhib. of PAF Broncho.)
Male guinea pigs (Hartley strain) weighing 300 to 500 g are anesthetized with urethane (2 g/kg) intraperitoneally and a polyethylene cannula is inserted into the jugular vein for drug administration. Tracheal pressure is recorded from a cannula inserted in the trachea and connected to a Statham pressure transducer. Propranolol (0.1 mg/kg) is administered intravenously five minutes before challenge with synthetic PAF, the animal's skeletal muscles are then paralyzed with succinylcholine (1.2 mg/kg i.v.), and the animal is respirated using a Harvard small animal respirator operating at 40 breaths/min and 2.5 cc stroke volume. Under these conditions PAF induces a dose-dependent increase in ventilatory pressure over a dose range of 0.5 to 5 μg/kg i.v. For screening purposes animals are challenged with a single dose of PAF (10 μg/kg i.v.).
The peak increase in ventilatory pressure (cm H2 O) is recorded for three control animals and five drug-treated animals and the percent inhibition determined from the following formula [formula] Results obtained with representative compounds of the invention in this test are summarized hereinafter in Tables I and II.

[4] = tested on: PAF; experiment: Inhibition of PAF-Induced Platelet Aggregation (Inhib. of PAF Platelet Reduction); assay type: in vivo, guinea pig; details: Cavia porcellus, iv, 3 mg/kg i.v.
Description: (5) Inhibition of PAF-Induced Platelet Aggregation (Inhib. of PAF Platelet Reduction)
Guinea pigs (anesthetized) are set up to withdraw blood for platelet counting. The animal is allowed to stabilize after completion of surgical procedures. The carotid catheter is allowed to bleed back blood and then is filled, prior to each sample withdrawal with sodium citrate 3.8% (0.15 ml). Blood (0.25 ml) is withdrawn 30 seconds prior to the PAF challenge and at 15, 30 and 60 seconds after the PAF challenge. This first PAF challenge is used as the control, assuming sufficient decreases in platelet count are observed. The amount of PAF used will be approximately 50 ng/kg, however, this can be increased to achieve the desired decreases in platelet count. Fifteen minutes after the control PAF challenge, intravenous drug dosing begins, with animals being dosed at 30 minute intervals; PAF challenge follows 15 minutes after each intravenous dose. Three intravenous drug doses are used in each experiment. Initial drug doses are 1, 3 and 10 mg/kg i.v. Inhibition of PAF platelet reduction at 3 mg/kg i.v. for representative compounds of the invention are summarized hereinafter in Tables I and II. Percent inhibition is [formula]

CCCc1c(OCc2cccc(-c3nnnn3CCCc3cccnc3)c2)ccc(C(C)=O)c1O [1-[2-hydroxy-3-propyl-4-[[3-[1-[3-(3-pyridinyl)propyl]-1H-tetrazol-5-yl]phenyl]methoxy]phenyl]ethanone]
IC50 [1]: 1000 nM | IC50 [2]: 200 nM

CCCc1c(O)c(C(C)=O)cc(Cl)c1OCc1cccc(-c2nnnn2CCCc2cccnc2)c1 [1-[5-chloro-2-hydroxy-3-propyl-4-[[3-[1-[3-(3-pyridinyl)propyl]-1H-tetrazol-5-yl]phenyl]methoxy]phenyl]ethanone]
inhibition in vivo at 1 mg/kg [3]: 43 ± 21% | inhibition in vivo at 3 mg/kg [4]: 25% | IC50 [2]: 25 nM

CCCc1c(OCCCc2nnn(CCCc3cccnc3)n2)ccc(C(C)=O)c1O [3 3 3-pyridyl, 1-[2-hydroxy-3-propyl-4-[3-[2-[3-(3-pyridinyl)propyl]-2H-tetrazol-5-yl]propoxy]phenyl]ethanone]
inhibition in vivo at 1 mg/kg [3]: 13 ± 7% | IC50 [2]: > 1000 nM

CCCc1c(OCCCc2nnn(CCCCc3cccnc3)n2)ccc(C(C)=O)c1O [3 4 3-pyridyl, 1-[2-Hydroxy-3-propyl-4-[3-[2-[4-(3-pyridinyl)butyl]-2H-tetrazol-5-yl]propoxy]phenyl]ethanone]
inhibition in vivo at 1 mg/kg [3]: 38 ± 14% | IC50 [2]: 1000 nM

CCCc1c(OCCCCc2nnn(CCc3cccnc3)n2)ccc(C(C)=O)c1O [4 2 3-pyridyl, 1-[2-Hydroxy-3-propyl-4-[4-[2-[2-(3-pyridinyl)ethyl]-2H-tetrazol-5-yl]butoxy]phenyl]ethanone]
IC50 [2]: > 1000 nM

CCCc1c(OCCCCc2nnn(CCCn3ccnc3)n2)ccc(C(C)=O)c1O [4 3 1-imidazolyl, 1-[2-Hydroxy-3-propyl-4-[4-[2-[3-(1H-imidazol-1-yl)propyl]-2H-tetrazol-5-yl]butoxy]phenyl]-ethanone]
inhibition in vivo at 1 mg/kg [3]: 30 ± 15% | IC50 [2]: > 1000 nM

CCCc1c(OCCCCc2nnn(CCCc3cccnc3)n2)ccc(C(C)=O)c1O [4 3 3-pyridyl, 1-[2-Hydroxy-3-propyl-4-[4-[2-[3-(3-pyridinyl)propyl]-2H-tetrazol-5-yl]butoxy]phenyl]ethanone]
inhibition in vivo at 1 mg/kg [3]: 55 ± 9% | IC50 [2]: > 1000 nM

CCCc1c(OCCCCCc2nnn(Cc3cccnc3)n2)ccc(C(C)=O)c1O [5 1 3-pyridyl]
IC50 [2]: > 1000 nM

CCCc1c(OCCCCCc2nnn(CCCc3cccnc3)n2)ccc(C(C)=O)c1O [5 3 3-pyridyl, 1-[2-Hydroxy-3-propyl-4-[5-[2-[3-(3-pyridinyl)propyl]-2H-tetrazol-5-yl]pentyloxy]phenyl]ethanone]
inhibition in vivo at 1 mg/kg [3]: 38 ± 11% | IC50 [1]: 100 to 1000 nM | IC50 [2]: > 1000 nM

CCCc1c(OCCCCCc2nnn(CCCCc3cccnc3)n2)ccc(C(C)=O)c1O [5 4 3-pyridyl, 1-[2-Hydroxy-3-propyl-4-[5-[2-[4-(3-pyridinyl)butyl]-2H-tetrazol-5-yl]pentyloxy]phenyl]ethanone]
inhibition in vivo at 1 mg/kg [3]: 94 ± 6% | IC50 [1]: 100 to 1000 nM | IC50 [2]: 480 nM

CCCc1c(O)c(C(C)=O)cc(Cl)c1OCCCCCc1nnnn1CCCCc1cccnc1 [Cl H 5 4 3-pyridyl, 1-[5-chloro-2-hydroxy-3-propyl-4-[5-[1-[4-(3-pyridinyl)butyl]-1H-tetrazol-5-yl]pentyloxy]phenyl]ethanone]
inhibition in vivo at 3 mg/kg [4]: 7% | IC50 [1]: 1000 nM | IC50 [2]: 140 nM

CCCc1c(OCCCCCc2nnnn2CCCc2cccnc2)ccc(C(C)=O)c1OC(C)=O [H Ac 5 3 3-pyridyl, 1-[2-Acetoxy-3-propyl-4-[5-[1-[3-(3-pyridinyl)propyl]-1H-tetrazol-5-yl]pentyloxy]phenyl]ethanone]
inhibition in vivo at 1 mg/kg [3]: 84.8 ± 11% | inhibition in vivo at 3 mg/kg [4]: 31% | IC50 [1]: 100 to 1000 nM | IC50 [2]: 180 nM

CCCc1c(OCCCc2nnnn2CCCc2cccnc2)ccc(C(C)=O)c1O [H H 3 3 3-pyridyl, 1-[2-Hydroxy-3-propyl-4-[3-[1-[3-(3-pyridinyl)propyl]-1H-tetrazol-5-yl]propoxy]phenyl]ethanone]
inhibition in vivo at 1 mg/kg [3]: 53 ± 17% | IC50 [1]: 10 to 100 nM | IC50 [2]: 250 nM

CCCc1c(OCCCCc2nnnn2CCc2cccnc2)ccc(C(C)=O)c1O [H H 4 2 3-pyridyl, 1-[2-Hydroxy-3-propyl-4-[4-[1-[2-(3-pyridinyl)ethyl]-1H-tetrazol-5-yl]butoxy]phenyl]ethanone]
inhibition in vivo at 1 mg/kg [3]: -15 ± 6% | inhibition in vivo at 3 mg/kg [4]: 48% | IC50 [2]: 1000 nM

CCCc1c(OCCCCCc2nnnn2Cc2cccnc2)ccc(C(C)=O)c1O [H H 5 1 3-pyridyl, 1-[2-Hydroxy-3-propyl-4-[5-[1-(3-pyridinyl)methyl-1H-tetrazol-5-yl]-pentyloxy]phenyl]ethanone]
IC50 [2]: 800 nM
